These are literature values, as cited in patent publication US5395974A, “Lewis acid catalyzed ammonolysis of nylon” (E. I. Du Pont de Nemours and Company, priority 1994, dated 1995).

The conditions of this data set: values in square brackets in the text.

Regarding `O=C(O)C(F)(F)F` [CF3 CO2 --], the “pKa of the conjugate acid of the anion” value was 0.2.
